The values that follow are results of earlier work, collected in US8632828B2, “Chinese herbal medicine composition used for antiinflammation, detumescence and acesodyne, and preparation method and use thereof” (priority 2009, dated 2014).

In data set [1] the test system is rats. Conditions: intravenous injection.
Data set [2] has as its system mice. Conditions: subcutaneous injection.
Data set [3] has as its system People. Conditions: oral administration.
In data set [4] the test system is melanin tumour. The following applies: mice, intraperitoneal injection.
The subject of data set [5] is ehrlich ascites tumor of mice. The following applies: intraperitoneal injection.

On to `COc1c2occc2cc2ccc(=O)oc12` [xanthotoxin], for which the median lethal dose (LD50) in data set [1] is reported as 160 mg/kg.

For the molecule `COC[C@]12CN(C)[C@@H]3[C@@H]4[C@H](OC)[C@H]1[C@@]3([C@@H](OC)C[C@H]2O)[C@@H]1C[C@@]2(O)[C@H](OC(=O)c3ccccc3)[C@@H]1[C@]4(OC(C)=O)[C@@H](O)[C@@H]2OC` [mesaconitine], the fatal dosage entry in data set [2] is recorded as “fatal dosage was 0.3~0.5 mg/kg”. In the case of `CCN1C[C@]2(COC)[C@H](O)C[C@H](OC)[C@@]34[C@@H]5C[C@@]6(O)[C@H](OC(=O)c7ccccc7)[C@@H]5[C@@](OC(C)=O)([C@@H]([C@H](OC)[C@H]23)[C@@H]14)[C@@H](O)[C@@H]6OC` [Aconitine], the LD50 in data set [2] was 0.32 mg/kg. The fatal dosage in data set [3] is recorded as 2~5 mg.

`Cc1cc(O)c2c(c1)C(=O)c1cc(O)cc(O)c1C2=O` [emodin]: the “inhibiting effect on melanin tumour” value in data set [4] is “injection, have good inhibiting”. In addition, the “inhibiting effect on ehrlich ascites tumor” value in data set [5] is recorded as “injection, have good inhibiting”.

Consider `COc1c2ccoc2cc2oc(=O)ccc12` [bergapten], for which, in data set [1], the LD50 is reported as 945 mg/kg.
